Experimental data reported in patent US20070275382A1, “Biomarkers for the Efficacy of Somatostatin Analogue Treatment” (priority 2003, published 2007).
*1 amine or outer side, *2 acyl side, *3 side chain or, on linkers, in order; H or OH if unused. Where a SMILES comes first, the peptide text is derived from it. Side-chain parts run from the residue outwards. [ ]: non-standard residue; d: D form. The star is where a group is joined. Ethylenediamine = C(CN[*:2])N[*:1]; Hyp = O=C(O)[CH]1C[CH](O)CN1; Phg = N[CH](C(=O)O)c1ccccc1; CO = O=C([*:1])[*:2]; Bn = c1ccc(C*)cc1

Tested on: Brown fat
Experiment: Microarray gene expression profiling (HG-U95A), brown fat
Assay type: in vivo, cynomolgus monkeys
Method: Origin of tissue and processing. Male and female cynomolgus monkeys received subcutaneously pasireotide (100 μg/animal/day) or the vehicle for 14 days. On day 15, all animals were sacrificed and tissues for RNA extraction were immediately snap-frozen and kept at −80° C. until processing.
RNA expression profiling was conducted by means of the HG-U95A gene expression probe array (Affymetrix; Santa Clara, Calif. USA), containing more than 12,600 probe sets interrogating primarily full-length human genes and also some control probe sets. The experiment was conducted according to the recommendations of the manufacturer. Briefly, total RNA was obtained by acid guanidinium thiocyanate-phenol-chloroform extraction (Trizol®, Invitrogen Life Technologies, San Diego, Calif. USA) from each frozen tissue section. The total RNA was then purified on an affinity resin (Rneasy®, Qiagen) and quantified. Double stranded cDNA was synthesized with a starting amount of approximately 5 μg full-length total RNA using the Superscript® Choice System (Invitrogen Life Technologies, Carlsbad, Calif. USA) in the presence of a T7-(dT)24 DNA oligonucleotide primer. Following synthesis, the cDNA was purified by phenol/chloroform/isoamyl alcohol extraction and ethanol precipitation. The purified cDNA was then transcribed in vitro using the BioArray® High Yield RNA Transcript Labeling Kit (ENZO, Farmingdale, N.Y. USA) in the presence of biotinylated ribonucleotides form biotin labelled cRNA. The labelled cRNA was then purified on an affinity resin (Rneasy®, Qiagen), quantified and fragmented. An amount of approximately 10 μg labelled cRNA was hybridized for 16 hours at 45° C. to an expression probe array. The array was then washed and stained twice with streptavidin-phycoerythrin (Molecular Probes,) using the GeneChip® Fluidics Workstation 400 (Affymetrix, Santa Clara, Calif. USA). The array was then scanned twice using a confocal laser scanner (GeneArray® Scanner, Agilent, Palo Alto, Calif. USA) resulting in one scanned image. This resulting “.dat-file” was processed using the MAS4 program (Affymetrix) into a “.cel-file”. The “.cel file” was captured and loaded into the Affymetrix GeneChip® Laboratory Information Management System (LIMS). The LIMS database is connected to a UNIX Sun Solaris server through a network filing system that allows for the average intensities for all probes cells (CEL file) to be downloaded into an Oracle database (NPGN). Raw data was converted to expression levels using a “target intensity” of 150. The data were evaluated for quality control and loaded in the GeneSpring® software 4.2.4 (Silicon Genetics, Calif. USA) for analysis.
On the human Affymetrix HGU95Av2 chip, probe sets for individual genes contain 20 oligonucleotide pairs, each composed of a “perfect match” 25-mer and a “mismatch” 25-mer differing from the “perfect” match oligonucleotide at a single base. After probe labelling, hybridization, and laser scanning, the expression level was estimated by averaging the differences in signal intensity measured by oligonucleotide pairs of a given probe (AvgDiff value). The fold changes and directions were calculated for selected genes, from the differences of the AvgDiff values between controls and treated.
To identify genes that were impacted by pasireotide, the dataset was initially filtered to exclude in a first wave of analysis, genes whose values were systematically in the lower expression ranges where the experimental noise is high (at least 80 in a number of experiments corresponding to the smallest number of replicas of any experimental point). In a second round of selection a threshold p-value of 0.05 (based on a t-test) identified differences between treated and control based on a two component error model (Global Error Model) and, whenever possible, with a stepdown correction for multi-hypothesis testing (Benjamini and Hochberg false discovery rate). […]

[1] = ↑ vs control, 100 μg/animal/day s.c., 14 days
[2] = ↓ vs control, 100 μg/animal/day s.c., 14 days

Q: Which “IGF-1 expression level, AvgDiff (range)” value (0.1 mg/animal/14day) does the source give for `NCCCCC1NC(=O)C(Cc2c[nH]c3ccccc23)NC(=O)C(c2ccccc2)NC(=O)C2CC(OC(=O)NCCN)CN2C(=O)C(Cc2ccccc2)NC(=O)C(Cc2ccc(OCc3ccccc3)cc2)NC1=O` (stereo not drawn) [Pasireotide, cyclo[4-(NH2—C2H4—NH—CO—O)Pro-Phg-DTrp-Lys-Tyr(4-Bzl)-Phe]] (cyclo(F[Hyp]([CO-Ethylenediamine])[Phg]WKY(Bn)); configuration not given here) here?
A: 389 (315 to 449)

Q: And the “IGFBP 4 expression level, AvgDiff (range)” value (0.1 mg/animal/14day)?
A: 763 (429 to 1058)

Q: What about the “IRS 2 expression level, AvgDiff (range)” value (0.1 mg/animal/14day) of the same compound?
A: 146 (80 to 222)

Q: What about the “SSTR3 expression level, AvgDiff (range)” value (0.1 mg/animal/14day) of the same compound?
A: 194 (87 to 248)

Q: And the “Adrenergic, β-3-, receptor transcript fold change” value [1]?
A: receptor ↑ x2.5

Q: And the “Apotosis-associated tyrosine kinase transcript fold change” value [1]?
A: tyrosine kinase ↑ x3.5

Q: What about the “CD2 antigen (cytoplasmic tail)-binding protein 2 transcript fold change” value [1] of the same compound?
A: binding protein 2 ↑ x2.5

Q: What about the “CSF 3 receptor (granulocyte) transcript fold change” value [1] of the same compound?
A: (granulocyte) ↑ x3

Q: And the “Ca++ channel, voltage dependent, α 1H subunit transcript fold change” value [1]?
A: ↑ x3

Q: What about the “Cadherin 5, VE-cadherin (vascular epithelium) transcript fold change” value [1] of the same compound?
A: epithelium) ↑ x3

Q: And the “Cyclin T2 transcript fold change” value [1]?
A: Cyclin T2 ↑ x2.5

Q: What about the “Dopamine receptor D3 transcript fold change” value [1] of the same compound?
A: ↑ x2.5

Q: What about the “Dual specificity PP MKP-5 transcript fold change” value [1] of the same compound?
A: MKP-5 ↑ x2.5

Q: And the “Endothelial differentiation, sphingolipid G-protein-coupled receptor, 5 transcript fold change” value [1]?
A: ↑ x2.5

Q: And the “FSHR transcript fold change” value [1]?
A: FSHR ↑ x2.5

Q: And the “Follistatin-like 3 glycoprotein transcript fold change” value [1]?
A: glycoprotein ↑ x3

Q: What about the “G protein-activated inwardly rectifying K+ channel transcript fold change” value [1] of the same compound?
A: channel ↑ x3.5

Q: And the “GLUR, metabotropic 1 transcript fold change” value [1]?
A: ↑ x2

Q: And the “Guanine nucleotide binding protein (G protein), β polypeptide 3 transcript fold change” value [1]?
A: ↑ x2.5

Q: And the “IFN induced transmembrane protein 1 transcript fold change” value [1]?
A: 1 ↑ x2.5

Q: What about the “IL 3 (CSF, multiple) transcript fold change” value [1] of the same compound?
A: ↑ x2

Q: What about the “IL 5R, α transcript fold change” value [1] of the same compound?
A: IL 5R, α↑ x2.5

Q: And the “IL 7R precursor transcript fold change” value [1]?
A: IL 7R precursor ↑ x2

Q: What about the “IRS (insulin receptor substrate) 2 transcript fold change” value [1] of the same compound?
A: substrate) 2 ↑ x2.5

Q: What about the “Oxytocin, prepro-(neurophysin I) transcript fold change” value [1] of the same compound?
A: (neurophysin I) ↑ x2.5

Q: And the “PI glycan, class L transcript fold change” value [1]?
A: x3.5

Q: What about the “PLC β 4 transcript fold change” value [1] of the same compound?
A: PLC β 4 ↑ x2

Q: What about the “PP 5, catalytic subunit transcript fold change” value [1] of the same compound?
A: ↑ x2.5

Q: And the “T3 receptor transcript fold change” value [1]?
A: T3 receptor ↑ x2

Q: And the “TGF β 3 transcript fold change” value [1]?
A: TGF β 3 ↑ x2.5

Q: And the “TGF β-activated kinase-binding protein 1 transcript fold change” value [1]?
A: ↑ x2.5

Q: And the “VGF nerve growth factor inducible transcript fold change” value [1]?
A: factor inducible ↑ x2

Q: And the “Actin related protein 2/3 complex, subunit 1A (41 kD) transcript fold change” value [2]?
A: (41 kD) ↓ x2.5

Q: And the “CSF 1 (macrophage) transcript fold change” value [2]?
A: ↓ x2

Q: And the “Cadherin 13, H-cadherin (heart) transcript fold change” value [2]?
A: cadherin (heart) ↓ x2

Q: And the “Cadherin F1B1 transcript fold change” value [2]?
A: Cadherin F1B1 ↓ x4

Q: And the “Calcium/calmodulin-dependent protein kinase I transcript fold change” value [2]?
A: kinase I ↓ x3.5

Q: What about the “Capping protein (actin filament), gelsolin-like transcript fold change” value [2] of the same compound?
A: ↓ x2.5

Q: What about the “Coagulation factor XIIIAI subunit precursor transcript fold change” value [2] of the same compound?
A: ↓ x5

Q: What about the “EGF receptor pathway substrate 15 transcript fold change” value [2] of the same compound?
A: substrate 15 ↓ x2

Q: And the “Endothelial cell GF 1 (platelet derived) transcript fold change” value [2]?
A: (platelet derived) ↓ x2

Q: What about the “Extra spindle poles, S. cerevisiae, homologue of transcript fold change” value [2] of the same compound?
A: of ↓ x2.5

Q: And the “Fms-related tyrosine kinase 1 (VEGF/vascular permeability factor receptor) transcript fold change” value [2]?
A: factor receptor) ↓ x4.5

Q: What about the “G1 to S phase transition transcript fold change” value [2] of the same compound?
A: transition ↓ x1.5

Q: What about the “G protein-coupled receptor 1 transcript fold change” value [2] of the same compound?
A: receptor 1 ↓ x2.5

Q: What about the “G α inhibiting activity polypeptide 3 interacting protein transcript fold change” value [2] of the same compound?
A: protein ↓ x5

Q: What about the “IFNγ-inducible protein 30 (IP30) transcript fold change” value [2] of the same compound?
A: 30 (IP30) ↓ x3.5

Q: And the “IGF-1 transcript fold change” value [2]?
A: IGF-1 ↓ x1.5

Q: And the “IGF-binding protein 4 transcript fold change” value [2]?
A: ↓ x2

Q: And the “Neuroblastoma apoptosis-related RNA binding protein transcript fold change” value [2]?
A: binding protein ↓ x3

Q: And the “Neuroblastoma transcript fold change” value [2]?
A: Neuroblastoma ↓ x2.5

Q: What about the “PCNA transcript fold change” value [2] of the same compound?
A: PCNA ↓ x2.5

Q: And the “PI glycan, class F transcript fold change” value [2]?
A: PI glycan, class F ↓ x2

Q: And the “PI-3-kinase. regulatory subunit, polypeptide 2 (p85 β) transcript fold change” value [2]?
A: (p85 β) ↓ x3.5

Q: What about the “PP 2, regulatory subunit B (B56), γ isoform transcript fold change” value [2] of the same compound?
A: isoform ↓ x1.5

Q: And the “Pentaxin-related gene, rapidly induced by IL-1 transcript fold change” value [2]?
A: ↓ x7.5

Q: And the “THR interactor 10 transcript fold change” value [2]?
A: ↓ x3

Q: And the “THR interactor 12 transcript fold change” value [2]?
A: ↓ x1.5

Q: And the “TNF type 1 receptor associated protein transcript fold change” value [2]?
A: associated protein ↓ x2
